What was measured:
[1] = test system: Human tumor cell lines (LoVo, MDA-MB-231, H460 etc.); experiment: Anti-tumor assay, human tumor nude mouse xenograft model; assay type: in vivo, athymic nude mice; conditions: 50 mg/kg
Procedure: The anti-tumor activity of experimental compounds was evaluated in vivo using the human tumor nude mouse xenograft model. All procedures involving animals were conducted in an animal facility fully accredited by the American Association for Assessment and Accreditation of Laboratory Animal Care (AAALAC) and in accordance with The Guide for the Care and Use of Laboratory Animals (NIH). Protocols were approved by the RWJ-PRI Internal Animal Care and Use Committee (IACUC).
Human tumor cell lines (LoVo, MDA-MB-231, H460 etc.) were obtained from American Type Culture Collection and cultured under specified conditions required for each cell type. Female athymic nude mice (Charles River nu/nu) were injected subcutaneously in the inguinal region of the thigh with 1–2×10^6 tumor cells in 0.1 mL volume on day zero. For growth delay studies, mice were dosed orally with vehicle (control group) or experimental drugs beginning three days after tumor cell inoculation. Compounds were prepared in 0.5% methylcellulose and treatments were administered bid for 30–35 consecutive days. Tumor growth was measured twice a week using calipers for the duration of the treatment. Tumor areas (mm^2) were calculated as a product of length×width. […] Differences between treated and control mice were analyzed statistically by ANOVA and Dunnett's t-test. […]

LoVo = experiment: Flow cytometry and trypan blue exclusion cell counting, LoVo; assay type: cell-based, human
[2] = test system: human chronic myelogenous leukemia (CML) K562 cell line; experiment: Flow cytometry cell cycle phase distribution in leukemia cells; assay type: cell-based; conditions: K562, 24 hours
Procedure: (§1) The effect of compounds of the invention on cell proliferation in leukemia cells, in particular, the human chronic myelogenous leukemia (CML) K562 cell line, was tested using flow cytometry and trypan blue exclusion cell counting assays.
(§2) The human chronic myelogenous leukemia (CML) K562 cell line was obtained from American Type Culture Collection (ATCC) and cultured under specified conditions, as provided by ATCC. A Becton Dickinson FACSCalibur instrument was used for flow cytometry analyses. A CycleTEST PLUS DNA Reagent Kit (Cat. No. 340242, Becton Dickinson) was used in the study for cell staining. The standard operating procedure and a protocol for CycleTEST PLUS DNA Reagent Kit from Becton Dickinson have been followed to carry out the study. Briefly, flow cytometric analysis of the differentially stained CML K562 cell line was used to estimate the DNA content and cell cycle phase distribution of cells treated with various concentrations of the compound for 24 hours. […] Data analysis was carried out using the ModFit LT cell cycle data analysis program (Verity Software House, Topsham, Me. 04086, www.vsh.com). Cell viability test was performed using a Trypan Blue exclusion assay (Trypan Blue from Sigma, Cat No. T 0776) following procedures known to those skilled in the art.

[3] = test system: human chronic myelogenous leukemia (CML) K562 cell line; experiment: Trypan blue exclusion cell counting assay in leukemia cells; assay type: cell-based
Procedure: as §1, §2

DU145 (prostate cancer) = experiment: Clonogenicity assay, compound in combination with irradiation, DU145; assay type: cell-based, human
Procedure: Radiotherapy is a major therapeutic modality in treating many types of cancers including human prostate and ovarian cancers. The anti-proliferative activity of compounds within the scope of the invention was tested in combination with irradiation treatment.
Cells DU145 (prostate cancer) and MDAH2774 (ovarian cancer) were obtained from ATCC; growth media MEM medium (Mediatech, Herndon, Va.) was supplemented with 8% FBS, 5 U/ml penicillin and 50 μg/ml Streptomycin (Hyclone, Logan, Utah), 2 mM L-glutamine (Hyclone, Logan, Utah), 25 mM HEPES (Hyclone, Logan, Utah); McCoy's 5A medium (Mediatech, Herndon, Va.) was supplemented with 8% FBS, 50 U/ml penicillin and 50 μg/ml-Strep (Hyclone, Logan, Utah) and Glutamine 2 mM L-glutamine (Hyclone, Logan, Utah), ^137CS γ-source was a Gammacell 1000 Elite irradiator (MDS Nordion, Kanata, Ontario, Canada); DMSO; 1× PBS; Methanol; 0.25% Crystal Violet, and 60 mm tissue culture dishes.
DU145 or MDAH2774 cells at desired cell number were plated in early log phase on 60 mm dishes in MEM medium supplemented with 8% FBS, Penicillin, Streptomycin, L-glutamine, or McCoys medium supplemented with 8% FBS, Penicillin, Streptomycin and Glutamine, respectively. Cells were plated in triplicate. […] The final concentrations of the compound in the cell media ranged from 1 to 100 nM. After 24 h incubation with the test compound plates were split in two groups of equal size. The plates in the first group were irradiated with 7.3 Gy (plates containing DU145 cells) or 5.4 Gy (plates containing MDAH2774 cells) using a ^137Cs γ-source (dose rate 3.32 Gy/min). The second group of plates were treated identically but not irradiated. Cells were incubated for an additional 24 hours in medium containing test compound. Then, the cells were replenished with fresh compound-free identical medium and allowed to grow for an additional 11 days. Cells were then fixed with methanol, stained with 0.25% crystal violet, and the clones containing more than 50 cells were counted.
The activity appeared to be concentration-dependent with more dramatic effects achieved at 100 nM compound with radiation in either cell line.

## COc1cc2c(cc1OC)-c1n[nH]c(Nc3cccc(F)c3)c1C2 [Compound 14, (3-Fluoro-phenyl)-(6,7-dimethoxy-2,4-dihydro-indeno[1,2-c]pyrazol-3-yl)-amine]
[1]
  tumor growth inhibition: 72%
LoVo
  cell cycle / growth effect in LoVo cells: blocked growth
[2]; compound conc. 1 nM
  Percent of cells at G0–G1: 35%
  Percent of cells at G2/M: 11%
  Percent of cells at S phase: 53%
[2]; compound conc. 10 nM
  Percent of cells at G0–G1: 31%
  Percent of cells at G2/M: 28%
  Percent of cells at S phase: 41%
[2]; compound conc. 100 nM
  Percent of cells at G0–G1: 2%
  Percent of cells at G2/M: 98%
  Percent of cells at S phase: 0%
[2]; compound conc. 1000 nM
  Percent of cells at G0–G1: 3%
  Percent of cells at G2/M: 93%
  Percent of cells at S phase: 4%
[2]; compound conc. 10000 nM
  Percent of cells at G0–G1: 5%
  Percent of cells at G2/M: 90%
  Percent of cells at S phase: 5%
[3]; 24 hours treatment
  effect on cell proliferation in K562 cells: concentration-dependent decrease of cell proliferation
[3]; Homo sapiens, K562, 24 hours treatment, read-out: IC50 on K562 cell proliferation
  IC50: ~10 nM
DU145 (prostate cancer); 7.3 Gy, compound 1 to 100 nM
  colony formation inhibition with versus without radiation, DU145: the inhibitory effect was greater with radiation
DU145 (prostate cancer); W/o Radiation, 200 cells initially plated, compound 1 nM
  No. of DU145 Clones (average of three plates): 118
DU145 (prostate cancer); W/o Radiation, 200 cells initially plated, compound 3 nM
  No. of DU145 Clones (average of three plates): 108
DU145 (prostate cancer); W/o Radiation, 200 cells initially plated, compound 10 nM
  No. of DU145 Clones (average of three plates): 111
DU145 (prostate cancer); W/o Radiation, 200 cells initially plated, compound 30 nM
  No. of DU145 Clones (average of three plates): 100
DU145 (prostate cancer); W/o Radiation, 200 cells initially plated, compound 100 nM
  No. of DU145 Clones (average of three plates): 22
DU145 (prostate cancer); in the presence or absence of radiation (7.3 Gy)
  concentration from which marked inhibitory activity against colony formation was shown, DU145: ≥ 30 nM
DU145 (prostate cancer); w/Radiation (7.3 Gy), 1200 cells initially plated, compound 1 nM
  No. of DU145 Clones (average of three plates): 117
DU145 (prostate cancer); w/Radiation (7.3 Gy), 1200 cells initially plated, compound 3 nM
  No. of DU145 Clones (average of three plates): 100
DU145 (prostate cancer); w/Radiation (7.3 Gy), 1200 cells initially plated, compound 10 nM
  No. of DU145 Clones (average of three plates): 126
DU145 (prostate cancer); w/Radiation (7.3 Gy), 1200 cells initially plated, compound 30 nM
  No. of DU145 Clones (average of three plates): 57
DU145 (prostate cancer); w/Radiation (7.3 Gy), 1200 cells initially plated, compound 100 nM
  No. of DU145 Clones (average of three plates): 5

— patent US7196110B2, “N-substituted tricyclic 3-aminopyrazoles as inhibitors for the treatment of cell proliferative disorders” (Janssen Phamaceutica N.V., priority 2002, dated 2007)
